Source: patent US9926297B2, “Bicyclic AZA compounds as muscarinic M1 receptor and/or M4 receptor agonists” (Heptares Therapeutics Limited, priority 2014, dated 2018)
Where two headings read alike, the source gives them in different places.

What was measured:
[1] = biological target: T1, human muscarinic M1 receptor (Homo sapiens, UniProt P11229); assay: Alphascreen Surefire phospho-ERK1/2 functional assay, M1; format: cell-based; conditions: for EC50: CHO cells stably expressing human M1, phospho-ERK1/2, * = variable results, read-out: pEC50 M1 (converted); for Emax: CHO
T1 sequence (P11229 1-460): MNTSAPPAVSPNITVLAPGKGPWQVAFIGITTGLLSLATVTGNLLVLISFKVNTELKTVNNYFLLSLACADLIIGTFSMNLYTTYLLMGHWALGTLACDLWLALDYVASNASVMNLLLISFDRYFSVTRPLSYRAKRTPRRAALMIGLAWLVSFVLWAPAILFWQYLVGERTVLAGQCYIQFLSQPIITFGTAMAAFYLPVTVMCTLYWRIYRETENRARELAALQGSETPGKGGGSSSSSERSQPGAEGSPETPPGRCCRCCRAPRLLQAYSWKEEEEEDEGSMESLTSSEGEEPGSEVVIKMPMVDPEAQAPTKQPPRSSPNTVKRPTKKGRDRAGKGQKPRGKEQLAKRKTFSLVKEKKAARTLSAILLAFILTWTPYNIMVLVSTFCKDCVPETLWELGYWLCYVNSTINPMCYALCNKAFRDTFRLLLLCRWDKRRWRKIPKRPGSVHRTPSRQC

[2] = biological target: T2, human muscarinic M4 receptor (Homo sapiens, UniProt P08173); assay: Alphascreen Surefire phospho-ERK1/2 functional assay, M4; format: cell-based; conditions: for EC50: CHO cells stably expressing human M4, phospho-ERK1/2, * = variable results, read-out: pEC50 M4 (converted); for Emax: CHO; for selectivity for the M4 receptor relative to the M1 receptor: functional assay of Example A
T2 construct: expressed in transfected cells
T2 sequence (P08173 1-479): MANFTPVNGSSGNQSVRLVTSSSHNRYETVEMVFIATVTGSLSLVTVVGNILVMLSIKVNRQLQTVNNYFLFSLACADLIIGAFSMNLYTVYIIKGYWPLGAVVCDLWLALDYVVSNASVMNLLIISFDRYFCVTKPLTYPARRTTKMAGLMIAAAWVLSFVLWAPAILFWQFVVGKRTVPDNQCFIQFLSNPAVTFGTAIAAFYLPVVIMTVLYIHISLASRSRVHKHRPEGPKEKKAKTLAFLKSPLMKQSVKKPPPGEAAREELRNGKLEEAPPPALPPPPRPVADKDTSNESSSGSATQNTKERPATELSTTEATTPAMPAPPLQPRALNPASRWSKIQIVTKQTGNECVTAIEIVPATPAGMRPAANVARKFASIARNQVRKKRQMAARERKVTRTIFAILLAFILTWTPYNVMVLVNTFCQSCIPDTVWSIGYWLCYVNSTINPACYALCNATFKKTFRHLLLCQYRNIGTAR

[3] = read-out: % Emax cf. ACh, M1, CHO cells stably expressing human M1, relative to ACh
[4] = read-out: % Emax cf. ACh, M4, CHO cells stably expressing human M4, relative to ACh

Row | EC50 [1] [nM] | Emax [1, 3] [%] | EC50 [2] [nM] | Emax [2, 4] [%] | Structure (SMILES) | Emax ([1]; read-out: % Emax cf. ACh, M1) [%] | Emax ([2]; read-out: % Emax cf. ACh, M4) [%] | selectivity for the M4 receptor relative to the M1 receptor [2]
1 | 501 | 30 | 200 | 41 | CCOC(=O)N1CCC2(CC(N3CCC(c4nc(C(F)(F)F)c[nH]4)CC3)C2)C1 (single isomer, unassigned) [1-3 Isomer 2, ethyl 2-(4-(4-(trifluoromethyl)-1H-imidazol-2-yl)piperidin-1-yl)-6-azaspiro[3.4]octane-6-carboxylate] |  |  | 
2 | 1000 | 55 | 251 | 67 | CCOC(=O)N1CCC2(CC(N3CCC(c4nc(C#N)c[nH]4)CC3)C2)C1 (single isomer, unassigned) [1-4 Isomer 2, ethyl 2-[4-(4-cyano-1H-imidazol-2-yl)piperidin-1-yl]-6-azaspiro[3.4]octane-6-carboxylate] |  |  | 
3 | 5010 | 62 | 251 | 106 | CCOC(=O)N1CCC2(CC(N3CCC(c4ncc(C)n4C)CC3)C2)C1 (single isomer, unassigned) [1-10 Isomer 2, ethyl 2-[4-(1,5-dimethyl-1H-imidazol-2-yl)piperidin-1-yl]-6-azaspiro[3.4]octane-6-carboxylate] |  |  | 
4 | 794 | 83 | 7940 | 48 | CCOC(=O)N1CCC2(CC(N3CCC(c4cc(N)n[nH]4)CC3)C2)C1 (single isomer, unassigned) [1-19 Isomer 2, ethyl 2-[4-(3-amino-1H-pyrazol-5-yl)piperidin-1-yl]-6-azaspiro[3.4]octane-6-carboxylate] |  |  | 
5 | 200 | 47 | > 20000 | 20 | CCOC(=O)N1CCC2(CC(N3CCC(c4ccn(C)n4)CC3)C2)C1 (single isomer, unassigned) [1-22 Isomer 2, ethyl 2-[4-(1-methyl-1H-pyrazol-3-yl)piperidin-1-yl]-6-azaspiro[3.4]octane-6-carboxylate] |  |  | 
6 | 1000 | 27 | 398 | 41 | CCOC(=O)N1CCC2(CC(N3CCC(c4nnc(CC)[nH]4)CC3)C2)C1 (single isomer, unassigned) [1-27 Isomer 2, ethyl 2-[4-(5-ethyl-1H-1,2,4-triazol-3-yl)piperidin-1-yl]-6-azaspiro[3.4]octane-6-carboxylate] |  |  | 
7 | 2000 | 57 | 501 | 60 | CCOC(=O)N1CCC2(CC(N3CCC(c4nnco4)CC3)C2)C1 (single isomer, unassigned) [1-28 Isomer 2, ethyl 2-[4-(1,3,4-oxadiazol-2-yl)piperidin-1-yl]-6-azaspiro[3.4]octane-6-carboxylate] |  |  | 
8 | 794 | 44 | 126 | 36 | CCOC(=O)N1CCC2(CC(N3CCC(c4nc(C)no4)CC3)C2)C1 (single isomer, unassigned) [1-29 Isomer 2, ethyl 2-[4-(3-methyl-1,2,4-oxadiazol-5-yl)piperidin-1-yl]-6-azaspiro[3.4]octane-6-carboxylate] |  |  | 
9 | 2510 | 34 | 100 | 40 | CCOC(=O)N1CCC2(CC(N3CCC(c4nnn[nH]4)CC3)C2)C1 (single isomer, unassigned) [1-31 Isomer 2, ethyl 2-[4-(1H-tetrazol-5-yl)piperidin-1-yl]-6-azaspiro[3.4]octane-6-carboxylate] |  |  | 
10 | 5010 | 73 | 251 | 47 | CCOC(=O)N1CCC2(CC(N3CCC(n4cncn4)CC3)C2)C1 (single isomer, unassigned) [1-36 Isomer 2, ethyl 2-[4-(1H-1,2,4-triazol-1-yl)piperidin-1-yl]-6-azaspiro[3.4]octane-6-carboxylate] |  |  | 

The next lines start with the compound.

Row | Structure (SMILES) | EC50 [1] [nM] | Emax [1, 3] [%] | EC50 [2] [nM] | Emax [2, 4] [%] | Emax ([1]; read-out: % Emax cf. ACh, M1) [%] | Emax ([2]; read-out: % Emax cf. ACh, M4) [%] | selectivity for the M4 receptor relative to the M1 receptor [2]
11 | COC(=O)N1CCC2(CC(N3CCC(c4ccnn4C)CC3)C2)C1 (mixture of isomers) [1-20 Mixture of diastereomers, methyl 2-[4-(1-methyl-1H-pyrazol-5-yl)piperidin-1-yl]-6-azaspiro[3.4]octane-6-carboxylate] | > 20000 | 62 | 1000 | 56 |  |  | 
12 | COC(=O)N1CCC2(CC(N3CCC(c4ncc(C)n4C)CC3)C2)C1 (single isomer, unassigned) [1-9 Isomer 2, methyl 2-[4-(1,5-dimethyl-1H-imidazol-2-yl)piperidin-1-yl]-6-azaspiro[3.4]octane-6-carboxylate] | > 20000 | 57 | 794 | 48 |  |  | 
13 | COC(=O)N1CCC2(CC(N3CCC(c4nc(C)cn4C)CC3)C2)C1 (single isomer, unassigned) [1-11 Isomer 2, methyl 2-[4-(1,4-dimethyl-1H-imidazol-2-yl)piperidin-1-yl]-6-azaspiro[3.4]octane-6-carboxylate] | 1580 | 98 | 251 | 85 |  |  | 
14 | COC(=O)N1CCC2(CC(N3CCC(c4ncc(Cl)n4C)CC3)C2)C1 (single isomer, unassigned) [1-13 Isomer 2, methyl 2-[4-(5-chloro-1-methyl-1H-imidazol-2-yl)piperidin-1-yl]-6-azaspiro[3.4]octane-6-carboxylate] | 1580 | 61 | 398 | 86 |  |  | 
15 | CCOC(=O)N1CCC2(CC(N3CCC(n4ccnn4)CC3)C2)C1 (single isomer, unassigned) [1-35 Isomer 2, ethyl 2-[4-(1H-1,2,3-triazol-1-yl)piperidin-1-yl]-6-azaspiro[3.4]octane-6-carboxylate] | 398 | 80 | 200 | 61 |  |  | 
16 | CCOC(=O)N1CCC2(CC(N3CCC(O)(c4ncc[nH]4)CC3)C2)C1 (single isomer, unassigned) [1-37 Isomer 2, ethyl 2-[4-hydroxy-4-(1 H-imidazol-2-yl)piperidin-1-yl]-6-azaspiro[3.4]octane-6-carboxylate] | 2510 |  | 501 |  | 78 | 126 | 
17 | CCOC(=O)N1CCC2(CC(N3CCC(O)(c4nccn4C)CC3)C2)C1 (single isomer, unassigned) [1-39 Isomer 2, ethyl 2-[4-hydroxy-4-(1-methyl-1H-imidazol-2-yl)piperidin-1-yl]-6-azaspiro[3.4]octane-6-carboxylate] | 1000 |  | 398 |  | 49 | 97 | 
18 | CCOC(=O)N1CCC2(CC(N3CCC(OC)(c4nccn4C)CC3)C2)C1 (single isomer, unassigned) [1-40 Isomer 2, ethyl 2-[4-methoxy-4-(1-methyl-1H-imidazol-2-yl)piperidin-1-yl]-6-azaspiro[3.4]octane-6-carboxylate] | > 20000 |  | 158 |  | 904 | 50 | 
19 | COC(=O)N1CCC2(CC(N3CCC(c4nccn4C)CC3)C2)C1 (stereo not shown) [Example 1-6, methyl 2-[4-(1-methyl-1H-imidazol-2-yl)piperidin-1-yl]-6-azaspiro[3.4]octane-6-carboxylate] |  |  |  |  |  |  | highly selective for the M4 receptor relative to the M1 receptor
20 | COC(=O)N1CCC2(CC(N3CCC(c4ncc(C)n4C)CC3)C2)C1 (stereo not shown) [Example 1-9, methyl 2-[4-(1,5-dimethyl-1H-imidazol-2-yl)piperidin-1-yl]-6-azaspiro[3.4]octane-6-carboxylate] |  |  |  |  |  |  | highly selective for the M4 receptor relative to the M1 receptor
21 | CCOC(=O)N1CCC2(CC(N3CCC(c4ccnn4C)CC3)C2)C1 (stereo not shown) [Example 1-21, ethyl 2-[4-(1-methyl-1H-pyrazol-5-yl)piperidin-1-yl]-6-azaspiro[3.4]octane-6-carboxylate] |  |  |  |  |  |  | highly selective for the M4 receptor relative to the M1 receptor
22 | CCOC(=O)N1CCC2(CC(N3CCC([C@@H]4CCCN4C(=O)NC)CC3)C2)C1 (stereo partly drawn) [Example 2-17, ethyl 2-{4-[(2S)-1-(methylcarbamoyl)pyrrolidin-2-yl]piperidin-1-yl}-6-azaspiro[3.4]octane-6-carboxylate] |  |  |  |  |  |  | highly selective for the M4 receptor relative to the M1 receptor
